Data reported in patent US10882843B2, “5-aminopyrazole carboxamide derivative as BTK inhibitor and preparation method and pharmaceutical composition thereof” (SUZHOU SINOVENT PHARMACEUTICALS CO., LTD., priority 2016, dated 2021).

Biological target: Recombinant Btk (Homo sapiens, UniProt Q06187)
Test: Kinase activity (BTK) inhibition assay, TR-FRET
Assay type: biochemical
Details: read-out: BTK kinase inhibitory activity grade (A/B/C)
Description: Kinase Activity (BTK) Inhibition Assay
The inhibitory effects of the compounds disclosed herein on BTK kinase activity were tested in an assay based on a time resolved fluorescence resonance energy transfer (TR-FRET) method. Recombinant Btk was pre-incubated with the compound disclosed herein in an assay buffer containing 50 mM. Tris pH 7.4, 10 mM MgCl2, 2 mM MnCl2, 0.1 mM EDTA, 1 mM DTT, 20 nM SEB, 0.1% BSA, 0.005% tween-20 at room temperature for 1 hour. The reaction was initiated by the addition of ATP (at the ATP Km concentration) and the peptide substrate (Biotin-[…]-NH2). After incubation for 1 hour at room temperature, an equal volume of stop solution containing 50 mM HEPES pH 7.0, 800 mM KF, 20 mM EDTA, 0.1% BSA, p-Tyr66 antibody linked with Eu cryptate and streptavidin-labeled XL665 was added to stop the reaction. The plate was incubated for an additional hour at room temperature and then the TR-FRET signal was read on a BMG PHERAstar FS instrument (ex337 nm, em 620 nm/665 nm). Based on the ratio of the signal of fluorescence at […] to 665 nm, the enzyme activity was calculated with an increased compound concentration. IC50 of each compound was obtained by fitting the data to the four-parameter equation of Graphpad Prism software.

Chain of Recombinant Btk (Q06187 whole entry): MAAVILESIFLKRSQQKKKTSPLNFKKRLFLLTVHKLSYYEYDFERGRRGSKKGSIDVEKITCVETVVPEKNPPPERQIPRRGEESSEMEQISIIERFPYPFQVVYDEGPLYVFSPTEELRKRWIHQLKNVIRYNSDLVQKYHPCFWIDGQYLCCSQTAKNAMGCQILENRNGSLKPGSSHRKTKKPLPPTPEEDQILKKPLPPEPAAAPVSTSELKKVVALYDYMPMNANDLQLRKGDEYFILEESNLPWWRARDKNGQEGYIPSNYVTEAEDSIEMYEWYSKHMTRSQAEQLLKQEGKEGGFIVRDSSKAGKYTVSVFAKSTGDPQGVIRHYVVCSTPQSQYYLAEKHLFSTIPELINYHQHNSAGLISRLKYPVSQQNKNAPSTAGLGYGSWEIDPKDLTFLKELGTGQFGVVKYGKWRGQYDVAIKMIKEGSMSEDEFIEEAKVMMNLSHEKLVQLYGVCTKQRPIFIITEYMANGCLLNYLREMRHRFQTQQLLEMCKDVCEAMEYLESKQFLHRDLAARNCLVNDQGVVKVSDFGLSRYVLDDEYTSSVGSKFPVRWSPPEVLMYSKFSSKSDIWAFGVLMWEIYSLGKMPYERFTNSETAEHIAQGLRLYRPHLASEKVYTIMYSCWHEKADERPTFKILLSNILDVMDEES

Compound	IC50 [nM]
C[C@H]1CC[C@@H](n2nc(-c3ccc(Oc4ccc(Cl)cn4)cc3)c(C(N)=O)c2N)CN1C#N [WS-401, 5-amino-3-(4-((5-chloropyridin-2-yl)oxy)phenyl)-1-((3R,6S)-1-cyano-6-methylpiperidin-3-yl)-1H-pyrazole-4-carboxamide]	< 100
C[C@@H]1CC[C@H](n2nc(-c3ccc(Oc4ccc(Cl)cn4)cc3)c(C(N)=O)c2N)CN1C#N [WS-402, 5-amino-3-(4-((5-chloropyridin-2-yl)oxy)phenyl)-1-((3S,6R)-1-cyano-6-methylpiperidin-3-yl)-1H-pyrazole-4-carboxamide]	100 to 1000
C[C@@H]1CC[C@@H](n2nc(-c3ccc(Oc4ccc(Cl)cn4)cc3)c(C(N)=O)c2N)CN1C#N [WS-403, 5-amino-3-(4-((5-chloropyridin-2-yl)oxy)phenyl)-1-((3R,6R)-1-cyano-6-methylpiperidin-3-yl)-1H-pyrazole-4-carboxamide]	100 to 1000
C[C@H]1CC[C@H](n2nc(-c3ccc(Oc4ccc(Cl)cn4)cc3)c(C(N)=O)c2N)CN1C#N [WS-404, 5-amino-3-(4-((5-chloropyridin-2-yl)oxy)phenyl)-1-((3S,6S)-1-cyano-6-methylpiperidin-3-yl)-1H-pyrazole-4-carboxamide]	100 to 1000
N#CN1CC(n2nc(-c3ccc(Oc4ccc(Cl)cn4)cc3)c(C(N)=O)c2N)CCC12CC2 (stereo not shown) [WS-405, 5-amino-3-(4-((5-chloropyridin-2-yl)oxy)phenyl)-1-(4-cyano-4-azaspiro[2.5]oct-6-yl)-1H-pyrazole-4-carboxamide]	< 100
N#CN1CC(n2nc(-c3ccc(Oc4ccc(F)cc4F)cc3)c(C(N)=O)c2N)CCC12CC2 (stereo not shown) [WS-408, 5-amino-1-(4-cyano-4-azaspiro[2.5]oct-6-yl)-3-(4-(2,4-difluorophenoxy)phenyl)-1H-pyrazole-4-carboxamide]	< 100
NC(=O)c1c(-c2ccc(Oc3ccc(F)cc3F)cc2)nn(C2CCC3(CC3)N(C(=O)/C=C/CO)C2)c1N (stereo not shown) [WS-409, (E)-5-amino-3-(4-(2,4-difluorophenoxy)phenyl)-1-(4-(4-hydroxybut-2-enoyl)-4-azaspiro[2.5]oct-6-yl)-1H-pyrazole-4-carboxamide]	< 100
C=CC(=O)N1CC(n2nc(-c3ccc(Oc4ccc(F)cc4F)cc3)c(C(N)=O)c2N)CCC12CC2 (stereo not shown) [WS-410, 1-(4-acryloyl-4-azaspiro[2.5]oct-6-yl)-5-amino-3-(4-(2,4-difluorophenoxy)phenyl)-1H-pyrazole-4-carboxamide]	< 100
N#CN1C[C@@H](n2nc(-c3ccc(Oc4ccc(F)cc4F)cc3)c(C(N)=O)c2N)CCC12CC2 [WS-412, (S)-5-amino-1-(4-cyano-4-azaspiro[2.5]oct-6-yl)-3-(4-(2,4-difluorophenoxy)phenyl)-1H-pyrazole-4-carboxamide]	> 1000

Second part, the molecule after the results:

IC50 [nM]	Compound
< 100	NC(=O)c1c(-c2ccc(Oc3ccc(Cl)cn3)cc2)nn(C2CCC3(CC3)N(C(=O)/C=C/CO)C2)c1N (stereo not shown) [WS-406, (E)-5-amino-3-(4-((5-chloropyridin-2-yl)oxy)phenyl)-1-(4-(4-hydroxybut-2-enoyl)-4-azaspiro[2.5]oct-6-yl)-1H-pyrazole-4-carboxamide]
< 100	C=CC(=O)N1CC(n2nc(-c3ccc(Oc4ccc(Cl)cn4)cc3)c(C(N)=O)c2N)CCC12CC2 (stereo not shown) [WS-407, 1-(4-acryloyl-4-azaspiro[2.5]oct-6-yl)-5-amino-3-(4-((5-chloropyridin-2-yl)oxy)phenyl)-1H-pyrazole-4-carboxamide]
100 to 1000	N#CN1C[C@@H](n2nc(-c3ccc(Oc4ccc(Cl)cn4)cc3)c(C(N)=O)c2N)CCC12CC2 [WS-414, (S)-5-amino-3-(4-((5-chloropyridin-2-yl)oxy)phenyl)-1-(4-cyano-4-azaspiro[2.5]oct-6-yl)-1H-pyrazole-4-carboxamide]
100 to 1000	CC#CC(=O)N1C[C@@H](n2nc(-c3ccc(Oc4ccc(Cl)cn4)cc3)c(C(N)=O)c2N)CCC12CC2 [WS-417]
